Experimental data published in US20090285836A1 (NEREUS PHARMACEUTICALS, INC., priority 2008, published 2009).
In brackets after ≈: the same amount, converted by molar mass.

Assays:
[1] = tested on: DU-145 cells; assay: drug titration, trypan blue exclusion assay; assay type: cell-based, human
[2] = tested on: HCT-116 human colon carcinoma; settings: cited from earlier work
[3] = tested on: National Cancer Institute's 60-cell-line panel; settings: cited from earlier work
[4] = tested on: SF-539 CNS cancer; settings: read-out: LC50; cited from earlier work
[5] = tested on: SK-MEL-28 melanoma; settings: read-out: LC50; cited from earlier work
[6] = tested on: MDA-MB-435 breast cancer; settings: read-out: LC50; cited from earlier work
[7] = single agent, mice models; cited from earlier work
[8] = tested on: human colony-forming assays; settings: single agent; cited from earlier work
[9] = tested on: DU-145 cells; assay: in vitro cell migration assay; assay type: cell-based, human; settings: DU-145, 100 ng/ml TNF-α
Description: (§1) The functional significance of the NPI-0052-induced changes in the expression profiles of the above metastasis-related gene products was expected to be reflected in the migratory and invasive cell properties.
(§2) In vitro cell invasion and migration assays were performed using the 24/well BD Biocoat 3 micron migration chambers or 8 micron Matrigel invasion chambers (Becton Dickinson Labware, Bedford, Mass.), respectively, according to manufacturer's instructions. For both assays, cells were starved for 4-5 h prior to setting up the assay by adding basal medium supplemented with 0.1% BSA. RPMI 1640 medium containing 10% serum was used as chemoatractant. […] Data were expressed as the fold cell migration derived from the mean RFU of cell migration through the membrane towards FBS divided by the mean RFU of cell migration in the absence of FBS. […] Invaded cells through Matrigel were counted under the microscope at 40× magnification. Data were expressed as the percent invasion through the Matrigel Matrix and membrane relative to the migration through the control insert membrane.
(§3) For migratory assays, 10^5 cells were seeded in the upper chamber, while in the lower chamber RPMI 1640 containing 10% FBS was added. […] Only labeled cells that had migrated through the pores of the membrane were detected. […]

[10] = tested on: DU-145 cells; assay: in vitro Matrigel cell invasion assay; assay type: cell-based, human; settings: DU-145, 100 ng/ml TNF-α
Description: as §1, §2, §3

[11] = tested on: YY1; assay: YY1 promoter luciferase reporter and YY1 expression; assay type: cell-based; settings: pYY1-luciferase reporter (FIG. 11A)
From the text: TRAIL is produced by immune cells, and is a ligand for death receptors DR4, DR5, DcR1, and DcR2. […] Controls included untransfected (UNT) and DMSO. […] RKIP may have a direct role in the NPI-0052-induced sensitization to TRAIL. […] RKIP overexpression results in DR5 upregulation and cell sensitization to TRAIL-mediated apoptosis. YY1 acts as a suppressor of DR5 transcription and is positively regulated by NF-κB. […] Transfection controls include medium only and siRNA negative control. YY1 has a direct role in tumor sensitization to TRAIL apoptosis. […] Controls include transfected with the YY1-lucificerase reporter construct only, and cells treated with 10 μg/ml DHMEQ only. […] CMV-RKIP inhibited both mRNA transcription and protein expression of YY1. YY1 is inhibited by RKIP overexpression via NF-κB down-regulation.

[12] = tested on: RKIP; assay: RKIP expression (RT-PCR, Western blot); settings: DU-145, 5 or 10 μg/ml DHMEQ, 24 h, Western blot (FIG. 21D)
Description: RKIP transcript levels were determined by RT-PCR for each time point tested (0-12 h). Normalized mRNA values were derived by dividing the mRNA value of each target gene with the corresponding quantity of GAPDH mRNA. Statistical analysis was performed using the Mann-Whitney U test. P values: treated vs untreated cells. The data represent the mean values±SEM from three independent experiments. […] Protein levels were also determined. Protein lysates were harvested at various time points and subjected to Western Blot analysis for RKIP protein. Actin was used as an internal control for loading. Blots are representative of three independent and reproducible experiments.
(§4) DU-145 cells were treated with 5 or 10 μg/ml DHMEQ and protein lysates were harvested 24 h after treatment for RKIP and Snail protein determination by Western blot.

[13] = tested on: Snail; assay: Snail expression (RT-PCR, Western blot); settings: DU-145, 5 or 10 μg/ml DHMEQ, 24 h, Western blot (FIG. 21D)
Description: as §4

In the case of `C[C@@]12OC(=O)[C@]1([C@@H](O)[C@@H]1C=CCCC1)NC(=O)[C@@H]2CCCl` [NPI-0052, Salinosporamide A], the “ID20 drug concentration (subtoxic concentration)” value [1] is given as 50 nM, the “IC50, in vitro cytotoxicity” value [2] is given as 0.011 µg/mL (≈ 0.0351 µM) and the “LC50 differential between resistant and susceptible cell lines” value [3] is given as “greater than 4 log”. The CC50 [4] was < 10 nM, the CC50 [5] was < 10 nM and the CC50 [6] was < 10 nM. The tolerance in vivo [7] was “good tolerance” and the “toxicity in human colony-forming assays” value [8] was “limited toxicity”.
In the case of TNF-α, the “augmentation of migration compared to untreated cells” value [9] is reported as ~10 fold and the “augmentation of invasion compared to untreated cells” value [10] is reported as ~10 fold.
With `O=C(NC1=CC(=O)[C@H]2O[C@H]2[C@H]1O)c1ccccc1O` [DHMEQ] the “YY1 promoter luciferase activity” value [11] was “inhibited YY1 luciferase activity”, the RKIP protein [12] was “RKIP induction” and the Snail protein [13] was “Snail suppression”.
